Data as given in patent US7754749B2, “Derivatives of a 1-phenyltriazole” (BASF Aktiengesellschaft, priority 2005, dated 2010).

Tests used:
Format in all cases: in vivo
[1] = system: yellowfever mosquito (Aedes aegypti); assay: Activity via glass contact; settings: rate of 0.1 ppm, 24 hours after treatment
Source text: (§1) 1. Activity against Argentine ant (Linepithema humile), harvester ant (Pogonomyrmex californicus), acrobat ant (Crematogaster spp.), carpenter ant (Camponotus floridanus), fire ant (Solenopsis invicta), house fly (Musca domestica), stable fly (Stomoxys calcitrans), flesh fly (Sarcophaga sp.), yellowfever mosquito (Aedes aegyptil), house mosquito (Culex quinquefasciatus), malaria mosquito (Anopheles albimanus), German cockroach (Blattella Germanica), cat flea (Ctenocephalides felis), and brown dog tick (Rhipicephalus sanguineus) via glass contact
(§2) Glass vials were treated with 0.5 ml of a solution of active ingredient in acetone and allowed to dry. Insects or ticks were placed into each vial together with some food and moisture supply.

[2] = system: house fly (Musca domestica); assay: Activity via glass contact; settings: rate of 5 ppm, 24 hours after treatment
Source text: as §1, §2

[3] = system: German cockroach (Blattella Germanica); assay: Activity via glass contact; settings: rate of 5 ppm, 24 hours after treatment
Source text: as §1, §2

[4] = system: acrobat ant (Crematogaster spp.); assay: Activity via glass contact; settings: rate of 10 ppm, 24 hours after treatment
Source text: as §1, §2

Tobacco Budworm = assay: Pesticidal action of synergistic mixtures, leaf dip bioassay on cotton leaves; settings: Heliothis virescens, foliar, 120 h
Source text: (§3) 12. Pesticidal action of synergistic mixtures of compounds of formula I
(§4) Potato plants for Colorado potato beetle and two-leaf cotton plants for tobacco budworm were utilized for bioassays. Excised plant leaves were dipped into 1:1 acetone/water dilutions of the active compounds. After the leaves had dried, they were individually placed onto water-moistened filter paper on the bottoms of Petri dishes. Each dish was infested with 5-7 larvae and covered with a lid. Each treatment dilution was replicated 4 times. Test dishes were held at approximately 27° C. and 60% humidity. Numbers of live and morbid larvae were assessed in each dish at 5 days after treatment application, and percent mortality was calculated.
(§5) To determine if an insecticidal mixture was synergistic, Limpel's formula was used: E=X+Y−XY/100 • E=Expected % mortality of the mixture • X=% mortality of compound X, as measured independently • Y=% mortality of compound Y, as measured independently
(§6) Synergism was evident if the % observed mortality for the mixture was greater than the % expected mortality.

[5] = system: diamond back moth (plutella xylostella); assay: Activity against diamond back moth; settings: in Brassica oleracea, foliar, 72 h
Procedure: 11. Activity against diamond back moth (plutella xylostella)
The active compounds were formulated in 50:50 acetone:water and 0.1% (vol/vol) Alkamuls EL 620 surfactant. A 6 cm leaf disk of cabbage leaves was dipped in the test solution for 3 seconds and allowed to air dry in a Petri plate lined with moist filter paper. The leaf disk was inoculated with 10 third instar larvae and kept at 25-27° C. and 50-60% humidity for 3 days. Mortality was assessed after 72 h of treatment.

[6] = system: green peach aphid (Myzus persicae); assay: Activity against green peach aphid; settings: 120 h, pepper leaves dipped, after 5 days, relative to check plants
Source text: 6. Activity against green peach aphid (Myzus persicae)
(§7) The active compounds were formulated in 50:50 acetone:water and 100 ppm Kinetic™ surfactant.
Pepper plants in the 2nd leaf-pair stage (variety ‘California Wonder’) were infested with approximately 40 laboratory-reared aphids by placing infested leaf sections on top of the test plants. The leaf sections were removed after 24 hr. The leaves of the intact plants were dipped into gradient solutions of the test compound and allowed to dry. Test plants were maintained under fluorescent light (24 hour photoperiod) at about 25° C. and 20-40% relative humidity. Aphid mortality on the treated plants, relative to mortality on check plants, was determined after 5 days.

[7] = system: brown planthopper (nilaparvata lugens); assay: Activity against brown planthopper; settings: rice seedlings sprayed, recorded after 24, 72 and 120 hours
Procedure: 9. Activity against brown planthopper (nilaparvata lugens)
The active compounds were formulated in 50:50 acetone:water. Potted rice seedlings were sprayed with 10 ml test solution, air dried, placed in cages and inoculated with 10 adults. Percent mortality was recorded after 24, 72 and 120 hours.

[8] = system: carpenter ant (Camponotus floridanus); assay: Activity via soil contact; settings: 24 h, read-out: mortality of Camponotus floridanus
Procedure: (§8) 2. Activity against Argentine ant (Linepithema humile), acrobat ant (Crematogaster spp.), carpenter ant (Camponotus floridanus), fire ant (Solenopsis invicta), and eastern subterranean termite (Reticulitermes flavipes) via soil contact
For ants, tests were conducted in Petri dishes. A thin layer of 1% agar in water was dispensed into the dishes and Florida sandy soil was spread over the agar. The active ingredient was dissolved in acetone and dispensed over the sand. Dishes were vented to evaporate the acetone, infested with ants, and covered. A 20% honey water solution was placed in each dish. The dishes were maintained at 22° C. and observed for mortality at various time intervals.

[9] = system: silverleaf whitefly (bemisia argentifolii); assay: Activity against silverleaf whitefly; settings: in Gossypium hirsutum, 72 h
Procedure: 8. Activity against silverleaf whitefly (bemisia argentifolii)
as §7
Selected cotton plants were grown to the cotyledon state (one plant per pot). The cotyledons were dipped into the test solution to provide complete coverage of the foliage and placed in a well-vented area to dry. Each pot with treated seedling was placed in a plastic cup and 10 to 12 whitefly adults (approximately 3-5 day old) were introduced. The insects were colleted using an aspirator and an 0.6 cm, non-toxic Tygon® tubing (R-3603) connected to a barrier pipette tip. The tip, containing the collected insects, was then gently inserted into the soil containing the treated plant, allowing insects to crawl out of the tip to reach the foliage for feeding. The cups were covered with a reusable screened lid (150 micron mesh polyester screen PeCap from Tetko Inc). Test plants were maintained in the holding room at about 25° C. and 20-40% relative humidity for 3 days avoiding direct exposure to the fluorescent light (24 hour photoperiod) to prevent trapping of heat inside the cup. Mortality was assessed 3 days after treatment of the plants.

bean aphid (aphis fabae) = assay: Activity against bean aphid; settings: 72 h
Source text: 7. Activity against bean aphid (aphis fabae)
as §7
Nasturtium plants grown in Metro mix in the 1st leaf-pair stage (variety ‘Mixed Jewle’) were infested with approximately 2-30 laboratory-reared aphids by placing infested cut plants on top of the test plants. The cut plants were removed after 24 hr. Each plant was dipped into the test solution to provide complete coverage of the foliage, stem, protruding seed surface and surrounding cube surface and allowed to dry in the fume hood. The treated plants were kept at about 25° C. with continuous fluorescent light. Aphid mortality was determined after 3 days.

[10] = system: eastern subterranean termite (Reticulitermes flavipes); assay: Activity via soil contact; settings: rate of 1 weight %, 3 days after treatment
Procedure: as §8
For termites, a thin layer of 1% agar was dispensed into Petri dishes. A thin layer of pre-treated soil was spread over the agar. For soil treatment, the active ingredient was diluted in acetone on a weight-to-weight basis and incorporated into the soil. Termite workers were introduced into each dish. Filter paper served as a food source. Test dishes were held at about 25° C. Termites were observed daily for mortality (dead or unable to stand upright and showing only weak movement).

[11] = system: cowpea aphid (aphis craccivora); assay: Activity against cowpea aphid
Procedure: 10. Activity against cowpea aphid (aphis craccivora)
The active compounds were formulated in 50:50 acetone:water. Potted cowpea plants colonized with 100-150 aphids of various stages were sprayed after the pest population has been recorded. Population reduction was recorded after 24, 72, and 120 hours.

[12] = system: cotton aphid (aphis gossypii); assay: Activity against cotton aphid; settings: 120 h, cotton cotyledons dipped, after 5 days
Source text: 5. Activity against cotton aphid (aphis gossypii)
as §7
Cotton plants at the cotyledon stage (one plant per pot) were infested by placing a heavily infested leaf from the main colony on top of each cotyledon. The aphids were allowed to transfer to the host plant overnight, and the leaf used to transfer the aphids was removed. The cotyledons were dipped in the test solution and allowed to dry. After 5 days, mortality counts were made.

[13] = system: eastern subterranean termite (Reticulitermes flavipes); assay: Activity via bait; settings: rate of 0.005 weight %; three days after treatment; bait (treated filter paper)
Procedure: 3. Activity against Argentine ant (Linepithema humile), acrobat ant (Crematogaster spp.), carpenter ant (Camponotus floridanus), fire ant (Solenopsis invicta), house fly (Musca domestica), eastern subterranean termite (Reticulitermes flavipes), Formosan subterranean termite (Coptotermes formosanus), and German cockroach (Blattella Germanica) via bait
For termites, active ingredient in acetone was applied to filter papers. % a.i. were calculated on basis of the weight of the filter paper. Bioassays were conducted with one treated filter and ca. 30 termite workers per test Petri dish. Test dishes were maintained at 25° C. and observed daily for mortality (dead or moribund insects) or intoxication.

Colorado Potato Beetle = assay: Pesticidal action of synergistic mixtures, leaf dip bioassay on potato leaves; settings: Leptinotarsa decemlineata, foliar, 120 h
Source text: as §3, §4, §5, §6

[14] = dose rate 100 ppm, 5 days after treatment
[15] = read-out: % Mortality of Tobacco Budworm

Row | Structure (SMILES) | mortality at 0.1 ppm [1] | mortality at 5 ppm [2] | mortality at 5 ppm [3] | mortality of Crematogaster spp. [4] | mortality at 100 ppm (Tobacco Budworm; [14]) | mortality at 300 ppm (Tobacco Budworm; dose rate 300 ppm, 5 days after treatment) | mortality at 300 ppm [5] | mortality at 300 ppm [6] | mortality at 300 ppm [7] | mortality at 10 ppm [8] | mortality at 300 ppm [9] | mortality at 300 ppm (bean aphid (aphis fabae)) | mortality of Reticulitermes flavipes [10] | mortality at 300 ppm [11] | mortality at 300 ppm [12] | mortality of Reticulitermes flavipes [13] | mortality at 100 ppm (Colorado Potato Beetle; [14]) | mortality at 0.03 ppm (Tobacco Budworm; [15]) | mortality at 0.06 ppm (Tobacco Budworm; [15]) | mortality at 0.06 ppm (Colorado Potato Beetle; read-out: % Mortality of Colorado Potato Beetle)
1 | Cc1nc(C2(C)CC2(Cl)Cl)nn1-c1c(Cl)cc(C(F)(F)F)cc1Cl (stereo not shown) [I-3, 3-(2,2-Dichloro-1-methyl-cyclopropyl)-1-(2,6-dichloro-4-trifluoromethyl-phenyl)-5-methyl-1H-[1,2,4]triazole] | 100% | 100% | 100% | 100% | 0% | 71.4% | 100% | 100% | 100% | 100% | 100% | 100% | 100% | 100% | 100% | 100% | 12.5% | – | – | –
2 | CC1(C)C(C=C(Cl)Cl)C1C(=O)OC(C#N)c1cccc(Oc2ccccc2)c1 (stereo not drawn) [alpha-cypermethrin, reference compound] | – | – | – | – | – | – | – | – | – | – | – | – | – | – | – | – | – | 0% | 7.2% | 17.5%
3 | Cc1nc(C2CC2(Cl)Cl)nn1-c1c(Cl)cc(C(F)(F)F)cc1Cl (stereo not shown) [I-2, 1-(2,6-dichloro-4-trifluoromethylphenyl)-3-(2,2-dichlorocyclopropyl)-5-methyl-1,2,4-triazole] | – | – | – | – | – | – | – | – | 100% | – | – | – | – | 100% | – | – | – | – | – | –
